System: 883617-216-R-J1-PDC complex spheroid viability
Assay: Anticancer human tumor 883617-216-R-J1-PDC patient-derived bladder carcinoma cell line growth inhibition [POLQ]
Conditions: for IC50: curve of first compound; for viability, T/C: stronger effect = lower value; active means viability on the fitted dose curve at most 10% of control; inactive means the rest
Summary of the method: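 PDC + HUVEC + MSC complex spheroids; POLQ inhibitors ± partner drugs; top conc. at/near clinical Cmax, else 10 microM (SN-38 1 microM), half-log dilutions; 37 degrees C, 5% CO2.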

[1] = second compound 0.0316 µM, first compound 0.00316 µM
[2] = second compound 0.0316 µM, first compound 0.01 µM
[3] = second compound 0.0316 µM, first compound 0.0316 µM
[4] = second compound 0.0316 µM, first compound 0.1 µM
[5] = second compound 0.0316 µM, first compound 0.316 µM
[6] = second compound 0.0316 µM, first compound 1 µM
[7] = second compound 0.1 µM, first compound 0.00316 µM
[8] = second compound 0.1 µM, first compound 0.01 µM
[9] = second compound 0.1 µM, first compound 0.0316 µM
[10] = second compound 0.1 µM, first compound 0.1 µM
[11] = second compound 0.1 µM, first compound 0.316 µM
[12] = second compound 0.1 µM, first compound 1 µM
[13] = second compound 0.316 µM, first compound 0.00316 µM
[14] = second compound 0.316 µM, first compound 0.01 µM
[15] = second compound 0.316 µM, first compound 0.0316 µM
[16] = second compound 0.316 µM, first compound 0.1 µM
[17] = second compound 0.316 µM, first compound 0.316 µM
[18] = second compound 0.316 µM, first compound 1 µM
[19] = second compound 1 µM, first compound 0.00316 µM
[20] = second compound 1 µM, first compound 0.01 µM
[21] = second compound 1 µM, first compound 0.0316 µM
[22] = second compound 1 µM, first compound 0.1 µM
[23] = second compound 1 µM, first compound 0.316 µM
[24] = second compound 1 µM, first compound 1 µM
[25] = second compound 3.16 µM, first compound 0.00316 µM
[26] = second compound 3.16 µM, first compound 0.01 µM
[27] = second compound 3.16 µM, first compound 0.0316 µM
[28] = second compound 3.16 µM, first compound 0.1 µM
[29] = second compound 3.16 µM, first compound 0.316 µM
[30] = second compound 3.16 µM, first compound 1 µM
[31] = second compound 10 µM, first compound 0.00316 µM
[32] = second compound 10 µM, first compound 0.01 µM
[33] = second compound 10 µM, first compound 0.0316 µM
[34] = second compound 10 µM, first compound 0.1 µM
[35] = second compound 10 µM, first compound 0.316 µM
[36] = second compound 10 µM, first compound 1 µM
[37] = second compound 0.0316 µM, first compound 3.16 µM
[38] = second compound 0.0316 µM, first compound 10 µM
[39] = second compound 0.1 µM, first compound 3.16 µM
[40] = second compound 0.1 µM, first compound 10 µM
[41] = second compound 0.316 µM, first compound 3.16 µM
[42] = second compound 0.316 µM, first compound 10 µM
[43] = second compound 1 µM, first compound 3.16 µM
[44] = second compound 1 µM, first compound 10 µM
[45] = second compound 3.16 µM, first compound 3.16 µM
[46] = second compound 3.16 µM, first compound 10 µM
[47] = second compound 10 µM, first compound 3.16 µM
[48] = second compound 10 µM, first compound 10 µM
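Further: spheroids exposed to compounds for seven days before readout.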
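Wherever viability, T/C is given: 100% = DMSO vehicle control viability.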

COc1cccc(OCCCN)c1-c1cc(Nc2cnc(C#N)cn2)n[nH]1 + Cc1cccc(N(C)C(=O)C2C(O)CCN2c2nc(C)cc(C(F)(F)F)c2C#N)c1
92.7 nM: IC50 (second compound 3.16 µM)
77.3 nM: IC50 (second compound 1 µM)
71.6 nM: IC50 (second compound 0.0316 µM)
inactive: viability, T/C [1] 84.8% | viability, T/C [2] 70.7% | viability, T/C [3] 61.9% | viability, T/C [4] 46.8% | viability, T/C [5] 33.9% | viability, T/C [6] 35% | viability, T/C [7] 95.5% | viability, T/C [8] 81.7% | viability, T/C [9] 68.5% | viability, T/C [10] 40.8% | viability, T/C [11] 39.7% | viability, T/C [12] 30.7% | viability, T/C [13] 86.9% | viability, T/C [14] 81.8% | viability, T/C [15] 48.2% | viability, T/C [16] 45.7% | viability, T/C [17] 40.4% | viability, T/C [18] 35.4% | viability, T/C [19] 91.4% | viability, T/C [20] 82.9% | viability, T/C [21] 51.2% | viability, T/C [22] 51.4% | viability, T/C [23] 39.5% | viability, T/C [24] 29.1% | viability, T/C [25] 91.5% | viability, T/C [26] 77% | viability, T/C [27] 47.1% | viability, T/C [28] 60.2% | viability, T/C [29] 41.1% | viability, T/C [30] 31.8% | viability, T/C [31] 88.3% | viability, T/C [32] 83.5% | viability, T/C [33] 65.8% | viability, T/C [34] 51.7% | viability, T/C [35] 46.6% | viability, T/C [36] 47.5%
146 nM: IC50 (second compound 10 µM)
75.8 nM: IC50 (second compound 0.1 µM)
30.2 nM: IC50 (second compound 0.316 µM)

Cn1ncnc1[C@H]1c2n[nH]c(=O)c3cc(F)cc(c23)N[C@@H]1c1ccc(F)cc1 + Cc1cccc(N(C)C(=O)C2C(O)CCN2c2nc(C)cc(C(F)(F)F)c2C#N)c1
inactive: viability, T/C (second compound 0.0316 µM, first compound 0.000316 µM) 99.2% | viability, T/C (second compound 0.0316 µM, first compound 0.001 µM) 101% | viability, T/C [1] 93.4% | viability, T/C [2] 78% | viability, T/C [3] 74.4% | viability, T/C [4] 73.7% | viability, T/C (second compound 0.1 µM, first compound 0.000316 µM) 96.3% | viability, T/C (second compound 0.1 µM, first compound 0.001 µM) 96.3% | viability, T/C [7] 96.9% | viability, T/C [8] 86.6% | viability, T/C [9] 82.9% | viability, T/C [10] 76.7% | viability, T/C (second compound 0.316 µM, first compound 0.000316 µM) 95.7% | viability, T/C (second compound 0.316 µM, first compound 0.001 µM) 98.3% | viability, T/C [13] 94.2% | viability, T/C [14] 81.1% | viability, T/C [15] 72.8% | viability, T/C [16] 64.2% | viability, T/C (second compound 1 µM, first compound 0.000316 µM) 98.1% | viability, T/C (second compound 1 µM, first compound 0.001 µM) 98.6% | viability, T/C [19] 88.6% | viability, T/C [20] 84.8% | viability, T/C [21] 83% | viability, T/C [22] 74% | viability, T/C (second compound 3.16 µM, first compound 0.000316 µM) 109% | viability, T/C (second compound 3.16 µM, first compound 0.001 µM) 96.8% | viability, T/C [25] 94.8% | viability, T/C [26] 84.5% | viability, T/C [27] 81.8% | viability, T/C [28] 69.2% | viability, T/C (second compound 10 µM, first compound 0.000316 µM) 103% | viability, T/C (second compound 10 µM, first compound 0.001 µM) 100% | viability, T/C [31] 98.4% | viability, T/C [32] 90.8% | viability, T/C [33] 91.3% | viability, T/C [34] 80.6%
> 100 nM: IC50 (second compound 0.0316 µM) | IC50 (second compound 0.1 µM) | IC50 (second compound 0.316 µM) | IC50 (second compound 1 µM) | IC50 (second compound 3.16 µM) | IC50 (second compound 10 µM)

Nc1ccn(C2OC(CO)C(O)C2(F)F)c(=O)n1 (stereo not drawn) + Cc1cccc(N(C)C(=O)C2C(O)CCN2c2nc(C)cc(C(F)(F)F)c2C#N)c1
< 31.6 nM: IC50 (second compound 0.0316 µM) | IC50 (second compound 0.1 µM) | IC50 (second compound 0.316 µM) | IC50 (second compound 1 µM) | IC50 (second compound 3.16 µM) | IC50 (second compound 10 µM)
inactive: viability, T/C [3] 35.8% | viability, T/C [4] 33.2% | viability, T/C [5] 41.2% | viability, T/C [6] 41.4% | viability, T/C [37] 33.5% | viability, T/C [38] 31.1% | viability, T/C [9] 28% | viability, T/C [10] 45.6% | viability, T/C [11] 31.8% | viability, T/C [12] 38.2% | viability, T/C [39] 36.9% | viability, T/C [40] 24.6% | viability, T/C [15] 30.1% | viability, T/C [16] 31.9% | viability, T/C [17] 34% | viability, T/C [18] 38.5% | viability, T/C [41] 31.6% | viability, T/C [42] 35.5% | viability, T/C [21] 32.5% | viability, T/C [22] 27.6% | viability, T/C [23] 33.8% | viability, T/C [24] 36.5% | viability, T/C [43] 39.3% | viability, T/C [44] 34.7% | viability, T/C [27] 35% | viability, T/C [28] 28.4% | viability, T/C [29] 41.2% | viability, T/C [30] 39.8% | viability, T/C [45] 40.9% | viability, T/C [46] 27.4% | viability, T/C [33] 37.9% | viability, T/C [34] 35.5% | viability, T/C [35] 39.2% | viability, T/C [36] 39.2% | viability, T/C [47] 39.1% | viability, T/C [48] 31.7%

O=C(c1cc(Cc2n[nH]c(=O)c3ccccc23)ccc1F)N1CCN(C(=O)C2CC2)CC1 + Cc1cccc(N(C)C(=O)C2C(O)CCN2c2nc(C)cc(C(F)(F)F)c2C#N)c1
> 10000 nM: IC50 (second compound 0.0316 µM) | IC50 (second compound 0.1 µM) | IC50 (second compound 0.316 µM) | IC50 (second compound 1 µM) | IC50 (second compound 3.16 µM) | IC50 (second compound 10 µM)
inactive: viability, T/C [3] 111% | viability, T/C [4] 89.4% | viability, T/C [5] 82.2% | viability, T/C [6] 94.9% | viability, T/C [37] 79.3% | viability, T/C [38] 64.6% | viability, T/C [9] 111% | viability, T/C [10] 94% | viability, T/C [11] 91% | viability, T/C [12] 90.2% | viability, T/C [39] 80.3% | viability, T/C [40] 66.7% | viability, T/C [15] 112% | viability, T/C [16] 90.3% | viability, T/C [17] 89.8% | viability, T/C [18] 93.1% | viability, T/C [41] 82.6% | viability, T/C [42] 70.4% | viability, T/C [21] 98.7% | viability, T/C [22] 94.1% | viability, T/C [23] 90.9% | viability, T/C [24] 90.5% | viability, T/C [43] 92% | viability, T/C [44] 66.4% | viability, T/C [27] 93.3% | viability, T/C [28] 94.6% | viability, T/C [29] 90.5% | viability, T/C [30] 78.3% | viability, T/C [45] 87.3% | viability, T/C [46] 71.6% | viability, T/C [33] 114% | viability, T/C [34] 107% | viability, T/C [35] 120% | viability, T/C [36] 99.9% | viability, T/C [47] 95% | viability, T/C [48] 77.5%

— PubChem BioAssay AID1963833 (Molecular Pharmacology Branch, DTP, NCI, 2024)
